Like-named read-outs stand apart in the source and are kept apart here.
Columns and labels:
HeLa cells = test: CellTiter-Blue cytotoxicity assay; assay type: cell-based, human; conditions: for EC50: Homo sapiens, HeLa, read-out: EC50 (50% viability)
Protocol: EC50 and FIC calculations were performed using these treatments.
To understand the degree to which imidazolium chloride-based ILs of varying chain length are toxic to human cells, we treated HeLa cells with [HMIM]Cl or [OMIM]Cl with each of the four azole AFs for 24 h and evaluated cytotoxicity. Following 24 h of exposure in liquid culture at defined serial dilutions in a 96-well plate format, cells were evaluated for viability using CellTiter-Blue assay in which living cells can metabolize resazurin into resorufin, a fluorescent reporter molecule detected by plate spectroscopy. Consistent with findings for bacteria and yeast microorganisms, high concentrations of imidazolium chloride-based ILs are toxic to HeLa cells (Figure 6B). Moreover, HeLa cells treated with ILs with longer alkyl chain lengths [OMIM]Cl are less viable than when treated with [HMIM]Cl at the same final concentration. […] With respect to all four AFs, the degree of specificity for these drugs to fungi vs. human cells was clear (Figure 6B).

S. cerevisiae = test: Kirby–Bauer disk diffusion assay on IL-containing YPD plates; assay type: cell-based; conditions: for Zone of inhibition (ZOI) diameter: 100 = no growth on plate
Protocol: (§1) Assessment of fungal growth on YPD plates with AFs + ILs served as an indicator for the combined efficacy of treatment of ILs and AFs. YPD agar plates were made with addition of increasing concentrations of [HMIM]Cl at 0, 2.5, 6.25, and 25 mM or [OMIM]Cl at 0, 0.25, 0.625, and 2.5 mM. Plates solidified and dried on bench for 24 h before use. IN total, 400 μL of S. cerevisiae or C. albicans liquid culture at mid-log phase OD600 0.5 was spread using sterile glass beads to achieve even distribution. Following addition of culture, the plates were allowed to dry for 30 min before the addition of antifungal disks. Antifungal-infused disks were prepared using the stock solutions of solubilized antibiotics; 15 μL of each of the 4 azole antifungals at stock concentrations was pipetted onto a sterile 6 mm cellulose disk (BD). […] After plate drying was complete, sterile forceps were used to transfer the disks to the media, and the plate was grown upright in an incubator overnight at 30 °C. The following day, photographs were taken of the plates to visualize the zone of inhibition (ZOI) created by the combined treatment. Adobe Illustrator 2023 CC was used to perform digital measurements of ZOI diameters.
(§2) To assess the potential for combinatorial effects of ILs and AFs in yeast, Kirby–Bauer disk diffusion assays were performed for C. albicans and S. cerevisiae for [HMIM]Cl and [OMIM]Cl with all four AFs. […] The addition of 6 mm cellulose disks infused with equal volumes of solubilized AFs to the plates occurred after plating of C. albicans or S. cerevisiae, allowing for growth for 48 h at 23 °C, at which point the plates were evaluated for the establishment of zones of inhibition (ZOI). Digital pictures were acquired of all plates, and measurements of ZOI diameter were performed digitally as described in the Methods. […] With progressively increasing amounts of both [HMIM]Cl and [OMIM]Cl, ZOIs increased for all Afs, including Fluconazole and Itraconazole, which appear to be ineffective without IL in the Kirby–Bauer disk assay. Experiments were performed in triplicate and ZOIs were measured for all plates.
Similar experiments testing the combinatorial effects of [HMIM]Cl or [OMIM]Cl were performed on S. cerevisiae using Kirby–Bauer disk assays and quantified for changes in ZOI (Appendix Figure A1). ZOI measurements (mm) from both C. albicans and S. cerevisiae were compiled, and the averages are shown numerically as well as with shading and plotted in Figure 3. […] Finally, at intermediate concentrations of both [HMIM]Cl and [OMIM]Cl, a combinatorial effect of IL + AF was evident for all four AFs in S. cerevisiae, similar to observations in C. albicans.

C. albicans = test: as above; assay type: cell-based
Protocol: as §1, §2

CCCCCCCCn1cc[n+](C)c1.[Cl-] [[OMIM]Cl, 1-octyl-3-methylimidazolium chloride]
EC50 (HeLa cells; 24 h exposure): 1.11 mM
growth of S. cerevisiae on IL plate (S. cerevisiae; plates with 2.5 mM [OMIM]Cl): complete inability to grow

Clc1ccccc1C(c1ccccc1)(c1ccccc1)n1ccnc1 [Clotrimazole]
Zone of inhibition (ZOI) diameter (C. albicans; [HMIM]Cl 0 mM in plate): 10 mm
Zone of inhibition (ZOI) diameter (C. albicans; [HMIM]Cl 2.5 mM in plate): 10.33 mm
Zone of inhibition (ZOI) diameter (C. albicans; [HMIM]Cl 6.25 mM in plate): 25.67 mm
Zone of inhibition (ZOI) diameter (C. albicans; [HMIM]Cl 25 mM in plate): 30.67 mm
Zone of inhibition (ZOI) diameter (C. albicans; [OMIM]Cl 0 M in plate): 10 mm
Zone of inhibition (ZOI) diameter (C. albicans; [OMIM]Cl 0.25 mM in plate): 11 mm
Zone of inhibition (ZOI) diameter (C. albicans; [OMIM]Cl 0.625 mM in plate): 23.33 mm
Zone of inhibition (ZOI) diameter (C. albicans; [OMIM]Cl 2.5 mM in plate): 44.67 mm
inhibition of C. albicans growth around disk (C. albicans; absence of added IL): minimal inhibition
Zone of inhibition (ZOI) diameter (S. cerevisiae; [HMIM]Cl 0 mM in plate): 21.67 mm
Zone of inhibition (ZOI) diameter (S. cerevisiae; [HMIM]Cl 2.5 mM in plate): 26.67 mm
Zone of inhibition (ZOI) diameter (S. cerevisiae; [HMIM]Cl 6.25 mM in plate): 50.33 mm
Zone of inhibition (ZOI) diameter (S. cerevisiae; [HMIM]Cl 25 mM in plate): 100 mm
Zone of inhibition (ZOI) diameter (S. cerevisiae; [OMIM]Cl 0 M in plate): 21.67 mm
Zone of inhibition (ZOI) diameter (S. cerevisiae; [OMIM]Cl 0.25 mM in plate): 30 mm
Zone of inhibition (ZOI) diameter (S. cerevisiae; [OMIM]Cl 0.625 mM in plate): 47.33 mm
Zone of inhibition (ZOI) diameter (S. cerevisiae; [OMIM]Cl 2.5 mM in plate): 100 mm

CCCCCCn1cc[n+](C)c1.[Cl-] [[HMIM]Cl, 1-hexyl-3-methylimidazolium chloride]
toxicity on HeLa cells (HeLa cells; 1.563 mM [HMIM]Cl): low levels of toxicity
EC50 (HeLa cells; 24 h): 14.1 mM
growth of S. cerevisiae on IL plate (S. cerevisiae; plates with 25 mM [HMIM]Cl): complete inability to grow
